We go through 42 substances from patent publication US20240285727A1, “NOVEL THERAPEUTIC PEPTIDES FOR NEURODEGENERATION” (UNIVERSITY OF SOUTHERN CALIFORNIA, priority 2021, published 2024).

This test relates to SHSY5Y. The test can be described thus: Analogue screening assay, measured by MTT. The settings on record: as a percentage compared to SHMOOSE (SHMOOSE activity as 100%). The test is classed as cell-based. The source says: FIG. 10 depicts an analogue screening assay, measured by MTT. Top: each bar represents a fragment (25-amino acid in length) of SHMOOSE. Bottom: each bar represents a phosphomimetic fragment (25-amino acid in length) of SHMOOSE. Cell model is SHSY5Y. The Inventors made 103 analogues/derivatives (see Table 1).
The Inventors made 103 analogues (Table 1). Referring to FIG. 10, in the top figure, each bar represents a 25-amino acid fragment of the SHMOOSE peptide. […] The sequence length of the analogue is 14 amino acids and 3 different analysis windows of the analogue, each having 11 amino acids, were characterized. […]

For the substance “16 (NSYPLVLGPKNFGATPNKSNNHAHY) [compound 16]”, the “% Efficacy” value is on record as −79.03%. For “60 (KDNDDPLVLGPKNFGADPNKDNNHA) [compound 60]” the value was −146.91%; for “50 (CLDDWLDQLLKDNDDPLVLGPKNFG) [compound 50]”, −340.42%. To “72 (NFGADPNKDNNHAHDDNHPNPDFPN) [compound 72]” belongs −28.57%. With “71 (KNFGADPNKDNNHAHDDNHPNPDFP) [compound 71]”, the “% Efficacy” value is on record as −113.32%. “101 (MPPCLTTWISQIIKDNSYPLVLGPKNFGATPNKSNNHAHYYNHPNPDFPNSPHPYHPR) [compound 101]”: the “% Efficacy” value is listed as −10.26%. For “51 (LDDWLDQLLKDNDDPLVLGPKNFGA) [compound 51]” the value was −132.69%. To “75 (ADPNKDNNHAHDDNHPNPDFPNDPH) [compound 75]” belongs −157.10%. To “99 (MPPCITTWISQILKDNSYPLVLGPKNFGATPNKSNNHAHYYNHPNPDFPNSPHPYHPR) [compound 99]” belongs −7.692%. Turning to “81 (GPKNFGADPNKDNNHAHDDNHPNPN) [compound 81]”, the “% Efficacy” value is given as −172.67%. For “85 (FGADPNKDNNHAHDDNHPNPNFPND) [compound 85]” the value was −476.83%. For “86 (GADPNKDNNHAHDDNHPNPNFPNDP) [compound 86]” the value was −62.75%; for “24 (PKNFGATPNKSNNHAHYYNHPNPDF) [compound 24]”, −185.28%. For “36 (PKNFGATPNKSNNHAHYYNHPNPNF) [compound 36]” the value was −120.40%; for “7 (TWLSQLLKDNSYPLVLGPKNFGATP) [compound 7]”, −113.24%. For “38 (NFGATPNKSNNHAHYYNHPNPNFPN) [compound 38]”, the “% Efficacy” value is listed as −196.67%. For “1 (MPPCLTTWLSQLLKDNSYPLVLGPK) [compound 1]” the value was 62.23%. For “17 (SYPLVLGPKNFGATPNKSNNHAHYY) [compound 17]” the value was −195.89%; for “42 (TPNKSNNHAHYYNHPNPNFPNSPHP) [compound 42]”, −392.68%. For “14 (KDNSYPLVLGPKNFGATPNKSNNHA) [compound 14]” the value was −147.96%; for “20 (LVLGPKNFGATPNKSNNHAHYYNHP) [compound 20]”, −248.54%. On to “23 (GPKNFGATPNKSNNHAHYYNHPNPD) [compound 23]”, for which the “% Efficacy” value is −210.91%.

Take “103 (MPPCLTTWLSQLIKDNSYPLVLGPKNFGATPNKSNNHAHYYNHPNPDFPNSPHPYHPR) [compound 103]”: the “% Efficacy” value came out at 86.32%.

Regarding “54 (WLDQLLKDNDDPLVLGPKNFGADPN) [compound 54]”, the “% Efficacy” value is recorded as −45.99%. To “52 (DDWLDQLLKDNDDPLVLGPKNFGAD) [compound 52]” belongs −38.98%. To “69 (GPKNFGADPNKDNNHAHDDNHPNPD) [compound 69]” belongs −184.35%; to “76 (DPNKDNNHAHDDNHPNPDFPNDPHP) [compound 76]”, −184.63%. Regarding “31 (PNKSNNHAHYYNHPNPDFPNSPHPY) [compound 31]”, the “% Efficacy” value is on record as −477.36%. As for “5 (LTTWLSQLLKDNSYPLVLGPKNFGA) [compound 5]”, the “% Efficacy” value is listed as −13.61%. Turning to “55 (LDQLLKDNDDPLVLGPKNFGADPNK) [compound 55]”, the “% Efficacy” value is −38.64%. To “104 (MPSCLTTWLSQLLKDNSYPLVLGPKNFGATPNKSNNHAHYYNHPNPDFPNSPHPYHPR) [compound 104]” belongs 82.05%. To “28 (GATPNKSNNHAHYYNHPNPDFPNSP) [compound 28]” belongs −229.42%. To “8 (WLSQLLKDNSYPLVLGPKNFGATPN) [compound 8]” belongs −3.65%. Take “62 (NDDPLVLGPKNFGADPNKDNNHAHD) [compound 62]”: the “% Efficacy” value is reported as −250.35%. To “67 (VLGPKNFGADPNKDNNHAHDDNHPN) [compound 67]” belongs −231.08%; to “47 (MPPCLDDWLDQLLKDNDDPLVLGPK) [compound 47]”, −150.17%.

For “78 (NKDNNHAHDDNHPNPDFPNDPHPDH) [compound 78]”, the “% Efficacy” value is listed as −240.90%. To “34 (SNNHAHYYNHPNPDFPNSPHPYHPR) [compound 34]” belongs −195.91%. As to “37 (KNFGATPNKSNNHAHYYNHPNPNFP) [compound 37]”, the “% Efficacy” value is −227.50%. For “35 (GPKNFGATPNKSNNHAHYYNHPNPN) [compound 35]” the value was 8.68%; for “92 (DNNHAHDDNHPNPNFPNDPHPDHPR) [compound 92]”, −85.47%; for “63 (DDPLVLGPKNFGADPNKDNNHAHDD) [compound 63]”, −216.49%.
